Data published in patent US20260306641A1, “HELICASE DEGRADERS” (priority 2023, published 2026).

Columns and labels:
[1] = test system: Psn1, H460 and 143B tumor lines; test: DNA damage (gamma-H2AX) and apoptosis (cleaved Parp) immunoblot, tumor lines; type: cell-based, human; conditions: 5 μM
Procedure: (§1) FIGS. 7A-7C depict that CMGi induce DNA damage and selectively reduce tumor cell viability. (FIG. 7A) Cell Titer Glo viability assays for CA1/CMGi sensitivity were performed on 143B (OS), Psn1 (PDAC), and H460 (NSCLC) tumor lines. Novobiocin was tested against 143B cells as a comparison. (FIG. 7B) Immunoblot of chromatin-bound proteins (as indicated) from asynchronous 143B OS cells treated with 10 μM novobiocin or increasing concentrations of CA1 for 24 hrs. (FIG. 7C) Immunoblot of total proteins from Psn1, H460, 143B, and HaCaT cells treated with 5 μM CA1/CMGi or DMSO/novobiocin controls, or HaCaT treated with 15 μM CA1/CMGi (right side). The Psn1 and H460 cells were treated for 24 hrs, and 143B and HaCaT cells were treated for 48 hrs. Probing of blots was done with anti-gamma-H2AX (DNA damage signal) or anti-cleaved-Parp (apoptotic indicator). Anti-GAPDH is a loading control.

[2] = test system: CMG proteins in 143B cells; test: Immunoblot of chromatin-bound proteins, asynchronous 143B OS cells; type: cell-based, human; conditions: 24 hrs
Procedure: as §1

HPV18-E1 helicase = HPV18-E1 helicase (human papillomavirus 18, UniProt P06789); test: HPV18-E1 helicase assay; type: biochemical, human papilloma virus 18; conditions: requires higher CA1 concentrations than CMG
HPV18-E1 helicase, sequence (P06789 305-657): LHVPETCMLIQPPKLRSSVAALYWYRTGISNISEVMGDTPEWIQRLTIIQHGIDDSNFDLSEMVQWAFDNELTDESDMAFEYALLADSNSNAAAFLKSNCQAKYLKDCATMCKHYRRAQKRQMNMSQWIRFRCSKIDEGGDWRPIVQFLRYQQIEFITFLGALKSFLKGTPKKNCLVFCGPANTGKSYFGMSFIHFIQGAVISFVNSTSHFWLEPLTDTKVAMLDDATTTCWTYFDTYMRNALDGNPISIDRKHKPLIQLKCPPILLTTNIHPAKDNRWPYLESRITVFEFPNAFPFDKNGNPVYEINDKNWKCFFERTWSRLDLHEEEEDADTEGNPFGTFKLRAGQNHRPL
Procedure: The HPV16 or HPV18 E1 helicase domain (16E1HD or 18E1HD) was expressed and purified from Sf9 cells by infecting the cells with 2Flag-GST-E1 baculovirus. The cleared cell lysates were prepared as for large T antigen and incubated with Glutathione beads at 4° C. overnight. The bound E1 proteins were eluted from beads with 20 mM reduced glutathione in Q buffer, applied to a Q Sepharose Fast Flow column, and eluted with 0.75 M potassium acetate in Q buffer. Purified E1 proteins were obtained by further incubation with Flag-M2 beads and elution with Flag peptides.
Helicase fork-unwinding assays were performed at 37° C. for 1 hr in 20 μL reaction volumes using 2-4 μl of hCMG (~15-30 fmol), in a buffer consisting of 25 mM Hepes-NaOH (pH 7.5), 5 mM NaCl, 0.5 mM ATP, 10 mM magnesium acetate, 1 mM DTT, 0.1 mg/ml bovine serum albumin (BSA), and ~10 fmol of radiolabeled DNA forks (20). Reactions were terminated with 4 μl of 6× stop solution [50 mM EDTA (pH 8.0), 40% (vol/vol) glycerol, 2% (wt/vol) SDS, and 0.3% bromophenol blue], loaded onto 10% (wt/vol) polyacrylamide gels, resolved at 150 volts in 1×-TBE buffer (89 mM Tris base, 89 mM boric acid, and 2 mM EDTA), dried on filter paper, and analyzed by autoradiography and quantified by PhosphorImager assessment. […]

[3] = test system: Cdk1 and Cdk2 targets (Rb, Cdc6, PP1a); test: Immunoblot of Cdk1/Cdk2-dependent targets, HaCaT cells; type: cell-based, human; conditions: extended exposure (18 hrs)
Procedure: Immunoblots of total proteins from synchronized HaCaT cells treated with compounds at time of release (0 hr; beginning of G1 phase) and collected after 18 hrs of exposure. (FIG. 5A) DDK-dependent phosphorylation sites on Mcm2 were analyzed with phospho-specific antibodies. (FIG. 5B) Cdk1- and Cdk2-dependent targets (Rb, Cdc6, and PP1α) were analyzed with phospho-specific antibodies.

[4] = test system: Psn1, H460 and 143B tumor lines; test: CellTiter-Glo viability, tumor lines; type: cell-based, human
Procedure: Human keratinocytes (HaCaT; RRID:CVCL_0038), 143B cells (osteosarcoma; RRID:CVCL_2270), and HEK-293T (RRID:CVCL_0063) cells were maintained in Dulbecco's Modified Eagle's Medium (DMEM) supplemented with 10% fetal bovine serum (FBS; Peak Serum, PS-FB-2). Human Psn1 (pancreatic ductal adenocarcinoma; RRID:CVCL_1644) and H460 (non-small cell lung carcinoma; RRID:CVCL_0459) cells were cultured in RPMI-1640 medium supplemented with 10% FBS. HaCaT cells were synchronized in Go using serum starvation for 48 hr and released into the cell cycle by addition of DMEM with 10% FBS (51). Novobiocin (cat #46531) and Courmermycin-A1 (cat #C9270) were obtained from Sigma. Etoposide (cat #S1225) and AT7519 (cat #S1524) were obtained from SelleckChem. All stock solutions of inhibitors were stored at −20° C. as 10 mM suspensions in DMSO.
Cell viability determinations were performed using CellTiter-Glo Assays (Promega; cat #G7572). Cells were seeded in 96-well plates at a density of ~3×10^3 cells/well and treated with drugs for 72 hr, after which the cells were processed for viability using CellTiter-Glo reagent according to the instructions of the manufacturer. Each drug concentration test was performed using four replicates, and results averaged and plotted on graphs, +/−1 s.d.

DNA Polymerase-theta = conditions: higher doses; cited from earlier work

| SMILES | gamma-H2AX and Parp cleavage, tumor lines vs HaCaT [1] | MCM levels ([2]; higher CA1 doses) | RPA levels ([2]; low micromolar CA1) | chromatin-bound levels of Cdc45, Psf1 and Psf2 ([2]; low micromolar CA1) | HPV18-E1 helicase sensitivity (HPV18-E1 helicase) | phosphorylation of Cdk2 targets Rb, Cdc6 (S54P) and Cdk1 target PP1a [3] | IC50 ([4]; Homo sapiens, 72 hr, all three tumor lines (Psn1, H460, 143B), read-out: tumor line viability IC50 estimates) [nM] | sensitivity of tumor lines relative to HaCaT ([4]; Psn1, H460, 143B vs HaCaT, 4320 min) | DNA Polymerase-theta inhibition (DNA Polymerase-theta) |
| --- | --- | --- | --- | --- | --- | --- | --- | --- | --- |
| CO[C@@H]1[C@@H](OC(=O)c2ccc(C)[nH]2)[C@@H](O)[C@H](Oc2ccc3c(O)c(NC(=O)c4c[nH]c(C(=O)Nc5c(O)c6ccc(O[C@@H]7OC(C)(C)[C@H](OC)[C@@H](OC(=O)c8ccc(C)[nH]8)[C@H]7O)c(C)c6oc5=O)c4C)c(=O)oc3c2C)OC1(C)C [CA1] | tumor cell-specific increase in DNA damage signals (gamma-H2AX surrogate) and Parp cleavage | MCM levels start to diminish | reducing RPA levels in a dose-dependent manner | reducing the chromatin-bound levels of Cdc45, Psf1, and Psf2 | sensitive to CA1, but require higher CA1 concentrations | no effect on these substrates | 1000 to 4000 | 4-10 times | – |
| CO[C@@H]1[C@@H](OC(N)=O)[C@@H](O)[C@H](Oc2ccc3c(O)c(NC(=O)c4ccc(O)c(CC=C(C)C)c4)c(=O)oc3c2C)OC1(C)C [novobiocin] | – | – | – | – | – | – | – | – | can inhibit a different anti-cancer target, DNA Polymerase-theta |
